Assay results: patent US5240933A, “14-hydroxy-N-(2-methoxyethyl)-7,8-dihydromorphine and -norisomorphine, processes for the preparation thereof and the use thereof as pharmaceutical compositions” (Boehringer Ingelheim GmbH, priority 1991, dated 1993)

What was measured:
[1] = phenylquinone writhing test (analgesic effect); assay type: in vivo
Method: (§1) In this test, compound 1a according to the invention has a mean effective dose (MED) of 2.5 mg/kg p.o. (64% effect) and compound 1b according to the invention has an MED of 10 mg/kg p.o. (71% effect). […] This small sodium shift indicates the […] nature of the compounds according to the invention.

opiate receptor [2] = target: opiate receptor (Homo sapiens, UniProt P35372); test: opiate receptor binding test with [^3 H]-dihydromorphine as radioligand
Chain of opiate receptor (Homo sapiens, UniProt P35372) (P35372 whole entry): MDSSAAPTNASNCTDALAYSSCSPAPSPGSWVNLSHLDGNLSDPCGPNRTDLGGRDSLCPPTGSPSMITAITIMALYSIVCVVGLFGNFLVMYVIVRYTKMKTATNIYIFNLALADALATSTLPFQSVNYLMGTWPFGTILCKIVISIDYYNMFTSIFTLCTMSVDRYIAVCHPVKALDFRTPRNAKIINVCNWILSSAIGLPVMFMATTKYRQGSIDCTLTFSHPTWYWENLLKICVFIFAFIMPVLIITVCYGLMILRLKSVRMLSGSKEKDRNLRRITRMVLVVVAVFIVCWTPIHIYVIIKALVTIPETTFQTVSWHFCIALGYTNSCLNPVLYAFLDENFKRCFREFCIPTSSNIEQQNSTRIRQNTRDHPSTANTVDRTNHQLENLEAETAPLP
Method: as §1

opiate receptor [3] = test: opiate receptor binding test with [^3 H]-naloxon as radioligand
Method: as §1

[4] = with the addition of 0.1M sodium chloride

Row | SMILES | effect ([1]; dose of 25 mg/kg p.o., comparison compound) | Ki (opiate receptor [2]) | Ki (opiate receptor [3]; [4]) | Ki (opiate receptor [3]; without sodium chloride) | effect ([1]; at MED of 2.5 mg/kg p.o.) | effect ([1]; at MED of 10 mg/kg p.o.)
1 | CC(C)Cc1ccc(C(C)C(=O)O)cc1 (stereo not drawn) [Ibuprofen, reference compound] | 65% |  |  |  |  | 
2 | COCCN1CC[C@]23c4c5ccc(O)c4O[C@H]2[C@@H](O)CC[C@@]3(O)[C@H]1C5 [compound 1a, 14-hydroxy-N-(2-methoxyethyl)-7,8-dihydronormorphine] |  | 0.91 nM | 2.39 nM | 2.14 nM | 64% | 
3 | COCCN1CC[C@]23c4c5ccc(O)c4O[C@H]2[C@H](O)CC[C@@]3(O)[C@H]1C5 [compound 1b, 14-hydroxy-N-(2-methoxyethyl)-7,8-dihydronorisomorphine] |  | 1.79 nM | 1.19 nM | 1.07 nM |  | 71%
